In publication PMC7558102, “Hybrid Multimodal Imaging Synthons for Chemoselective and Efficient Biomolecule Modification with Chelator and Near-Infrared Fluorescent Cyanine Dye” (Pharmaceuticals, 2020):
Like-named read-outs stand apart in the source and are kept apart here.

Legend:
[1] = photophysical properties (absorbance and emission measurements); format: physicochemical; details: for log ε: at λmax(abs); for λmax(em): excitation wavelength λex = 650 nm
Experimental: Finally, the photophysical properties were determined for dyes, MIS and their conjugates. It could be shown that the photophysical properties remained largely unaltered, including absorption coefficients and emission characteristics (Table 1). […] The only change in photophysical properties we qualitatively observed was an increase in the quantum yields of the dye conjugates compared to their unconjugated leads 1–3, an effect that was described before and can be attributed to the conjugation of sterically demanding groups (such as the PESIN homodimers used here), resulting in a decrease in aggregation of the dye molecules and thus a reduced fluorescence quenching. γ-Counting was performed using a 2480 Wizard gamma counter system from Perkin Elmer. A Cary 100 Bio system (Varian) was used to record the UV/Vis-Spectra together with 4 mL PMMA cuvettes from Sigma-Aldrich. Furthermore, for absorbance and emission measurements, a Tecan Infinite M200 Microplate reader together with a Nunc Micro-Well 96 solid plate from ThermoFisher was used.

[2] = logD of the unconjugated NIR cyanine dyes 1–3; format: physicochemical; details: 1-octanol/water; unconjugated dye
[3] = format: physicochemical; details: pH 7.4
Experimental: (§1) The mixtures were vigorously shaken for 5 min on a vibrating plate. After subsequent centrifugation at 13,000 rpm for 5 min, 125 µL was taken from each phase and measured in a γ-counter. The logD values were calculated from three or four independent experiments, each performed in triplicate. For 18, the logD was determined by semipreparative HPLC. For this purpose, a solution of 18 (10 µL, c = 5 × 10^−4 mol/L) in water was added to a mixture of 1 mL 1-octanol and 990 µL phosphate buffered solution (0.05 M, pH 7.4) and vigorously shaken for 5 min. After centrifugation, the phases were separated and both phases were analyzed by semipreparative HPLC and the peaks of the UV signals at 214 nm were integrated. The logD was determined by three separate measurements, each experiment performed in triplicate.

[4] = water/1-octanol partition coefficients (logD) of 68Ga-labeled compounds, γ-counting; format: physicochemical; details: pH 7.4
Experimental: as §1

CC1(C)C(/C=C/C2=C(c3ccc(C(=O)O)cc3)C(=C/C=C3/N(CCCCS(=O)(=O)[O-])c4ccc5ccccc5c4C3(C)C)/CCC2)=[N+](CCCCS(=O)(=O)O)c2ccc3ccccc3c21 [Compound 1]
Stokes Shift [1]: 11 nm
λmax(abs) [1]: 804 nm
log ε [1]: 5.00 M^−1 cm^−1
λmax(em) [1]: 815 nm
logD [2]: -1.03 ± 0.11

CC1(C)C(/C=C/C2=C(c3ccccc3)C(=C/C=C3/N(CCCCS(=O)(=O)[O-])c4ccc(S(=O)(=O)O)cc4C3(C)C)/CCC2)=[N+](CCCCS(=O)(=O)O)c2ccc(C(=O)O)cc21 [Compound 2]
Stokes Shift [1]: 20 nm
λmax(abs) [1]: 761 nm
log ε [1]: 5.44 M^−1 cm^−1
λmax(em) [1]: 781 nm
logD [2]: -4 ± 0.11

CC1(C)C(/C=C/C2=C(c3ccc(CCC(=O)O)cc3)C(=C/C=C3/N(CCCCS(=O)(=O)[O-])c4ccc(S(=O)(=O)O)cc4C3(C)C)/CCC2)=[N+](CCCCS(=O)(=O)O)c2ccc(S(=O)(=O)O)cc21 [Compound 3]
Stokes Shift [1]: 19 nm
λmax(abs) [1]: 756 nm
log ε [1]: 5.32 M^−1 cm^−1
λmax(em) [1]: 775 nm
logD [2]: -3.95 ± 0.15

CSCC[C@H](NC(=O)[C@H](CC(C)C)NC(=O)[C@H](Cc1c[nH]cn1)NC(=O)CNC(=O)[C@@H](NC(=O)[C@H](C)NC(=O)[C@H](Cc1c[nH]c2ccccc12)NC(=O)[C@H](CCC(N)=O)NC(=O)CCOCCOCCOCCOCCNC(=O)CON=Cc1ccc(C(=O)NCCCN(CCCNC(=O)c2ccc(C=NOCC(=O)NCCOCCOCCOCCOCCC(=O)N[C@@H](CCC(N)=O)C(=O)N[C@@H](Cc3c[nH]c4ccccc34)C(=O)N[C@@H](C)C(=O)N[C@H](C(=O)NCC(=O)N[C@@H](Cc3c[nH]cn3)C(=O)N[C@@H](CC(C)C)C(=O)N[C@@H](CCSC)C(N)=O)C(C)C)cc2)CC(=O)N[C@H](CSC2CC(=O)N(CCN3C(=O)CC(SC)C3=O)C2=O)C(=O)NCCOCCOCC(N)=O)cc1)C(C)C)C(N)=O (stereo partly drawn) [Compound 18]
logD [3]: -0.99 ± 0.03

CSCC[C@H](NC(=O)[C@H](CC(C)C)NC(=O)[C@H](Cc1c[nH]cn1)NC(=O)CNC(=O)[C@@H](NC(=O)[C@H](C)NC(=O)[C@H](Cc1c[nH]c2ccccc12)NC(=O)[C@H](CCC(N)=O)NC(=O)CCOCCOCCOCCOCCNC(=O)CON=Cc1ccc(C(=O)NCCCN(CCCNC(=O)c2ccc(C=NOCC(=O)NCCOCCOCCOCCOCCC(=O)N[C@@H](CCC(N)=O)C(=O)N[C@@H](Cc3c[nH]c4ccccc34)C(=O)N[C@@H](C)C(=O)N[C@H](C(=O)NCC(=O)N[C@@H](Cc3c[nH]cn3)C(=O)N[C@@H](CC(C)C)C(=O)N[C@@H](CCSC)C(N)=O)C(C)C)cc2)CC(=O)N[C@H](CSC2CC(=O)N(CCN3C(=O)CC(SC[C@H](NC(=O)[C@H](CCCCNC(=O)CCc4ccc(C5=C(C=CC6=[N+](CCCCS(=O)(=O)[O-])c7ccc(S(=O)(=O)O)cc7C6(C)C)CCCC5=CC=C5N(CCCCS(=O)(=O)O)c6ccc(S(=O)(=O)O)cc6C5(C)C)cc4)NC(=O)CC[C@H](C(=O)O)N4CCN(CC(=O)O)CCN(CC(=O)O)CC4)C(N)=O)C3=O)C2=O)C(=O)NCCOCCOCC(N)=O)cc1)C(C)C)C(N)=O (stereo partly drawn) [[68Ga]Ga-16, metal not drawn]
logD [4]: -2.55 ± 0.13

CSCC[C@H](NC(=O)[C@H](CC(C)C)NC(=O)[C@H](Cc1c[nH]cn1)NC(=O)CNC(=O)[C@@H](NC(=O)[C@H](C)NC(=O)[C@H](Cc1c[nH]c2ccccc12)NC(=O)[C@H](CCC(N)=O)NC(=O)CCOCCOCCOCCOCCNC(=O)CON=Cc1ccc(C(=O)NCCCN(CCCNC(=O)c2ccc(C=NOCC(=O)NCCOCCOCCOCCOCCC(=O)N[C@@H](CCC(N)=O)C(=O)N[C@@H](Cc3c[nH]c4ccccc34)C(=O)N[C@@H](C)C(=O)N[C@H](C(=O)NCC(=O)N[C@@H](Cc3c[nH]cn3)C(=O)N[C@@H](CC(C)C)C(=O)N[C@@H](CCSC)C(N)=O)C(C)C)cc2)CC(=O)N[C@H](CSC2CC(=O)N(CCN3C(=O)CC(SC[C@H](NC(=O)CNC(=O)CC[C@H](C(=O)O)N4CCN(CC(=O)O)CCN(CC(=O)O)CC4)C(N)=O)C3=O)C2=O)C(=O)NCCOCCOCC(N)=O)cc1)C(C)C)C(N)=O (stereo partly drawn) [[68Ga]Ga-17, metal not drawn]
logD [4]: -2.38 ± 0.03
